Reference: patent publication US20030135033A1, “Compounds and methods for the identification and/ or validation of a target” (priority 2002, published 2003)
d = 2'-deoxy (DNA); m = 2'-O-methyl

What was measured:
PI 3-kinase = assay: Akt phosphorylation induced by PTEN GeneBlocs in 3Y1 cells in presence of PI 3-kinase inhibitor; format: cell-based, rat; conditions: 30 nM PTEN 53 or 57, 48 h, 10 μM LY294002 30 min before lysis
Hela cells = assay: Cell growth on matrigel; format: cell-based, human; conditions: 48 h transfection, then 48 to 72 h on matrigel, versus control GeneBloc
From the text: More particularly, a schematic pathway with PTEN inhibiting PI-3K activity is shown which would normally phosphorylate Akt thus leading to proliferation, survival and migration of HeLa cells as a model system for PTEN +/+ cells. FIG. 9 B presents the Western immunoblot analysis of an experiment studying the influence of PTEN specific antisense oligonucleotide or a control antisense nucleotide designated as mismatch GeneBloc™. PTEN is only present in the control sample, but is absent when PTEN-specific antisense oligonucleotides are used. The successful knockdown of PTEN causes phosphorylation of Akt, indicative of induction of the signalling pathway. […] Growth on matrigel is used as a surrogate in vitro assay for metastatic or invasive cell growth. […]
Loss of PTEN function has been correlated with an increased metastatic growth potential in late stage human cancers (Cantley, L. C. and Neel, B. G. (1999). New insights into tumor suppression: PTEN suppresses tumor formation by restraining the phosphoinositide 3-kinase/AKT pathway. Proc Natl Acad Sci U S A 96, 4240-4245; Ali, I. U. (2000). Gatekeeper for endometrium: the PTEN tumor suppressor gene. J Natl Cancer Inst 92, 861-863). […] HeLa cells expressing an inducible version of a constitutively active PI 3-kinase, p110* […] were analyzed in parallel. […]

MEK = assay: Akt phosphorylation induced by PTEN GeneBlocs in 3Y1 cells in presence of MEK inhibitor; format: cell-based, rat; conditions: 30 nM PTEN 53 or 57, 48 h, 50 μM PD98059 30 min before lysis
Procedure: In this experiment two different antisense oligonucleotides (PTEN 53 and PTEN 57) were used together with further compounds, namely DMSO (D), Ly294002 (Ly) and PD98059 (PD) being an inhibitor for MEK-½ kinase. More particularly, the first test was carried out using the antisense oligonucleotide PTEN 53 in combination either with DMSO, LY or PD. The same experiment was carried out using PTEN 57 also directed against PTEN mRNA, and using GBC as defined above as a control antisense oligonucleotide. More particularly, 3Y1 cells on 10 cm plates were transfected in triplicates with 30 nM of the GeneBlocs PTEN 53, 57 or with GBC for 48 h. 30 min before lysis the cells were treated with 10 μM PI 3-kinase inhibitor LY294002 (LY), 50 μM MEK inhibitor PD98059 (PD) or with the vehicle DMSO (D). The positions of p110, phosphorylated Akt (P*-Akt) and PTEN are indicated on the right. […]
Pools of stably transfected HeLa cells in growth medium were stimulated with 200 nM 4-OHT in dimethylsulfoxide (DMSO) or with DMSO at 37° C. for 20 h. In experiments in which the effect of LY294002 or PD98059 was analyzed, the reagents were added in DMSO at 10 μg/ml or 50 μg/ml 30 min to 1 h before lysis. […]

O=c1cc(N2CCOCC2)oc2c(-c3ccccc3)cccc12 [LY294002, 2-(4-morpholinyl)-8-phenylchromone]
increase in Akt phosphorylation induced by the PTEN GeneBlocs (PI 3-kinase): completely abrogated

cuggaucAGAGTCAGTgguguca (CUGGAUCAGAGTCAGTGGUGUCA; sugars from the 5' end m7 d9 m7, backbone and methylation of C not given here; DNA gap phosphorothioate-linked, ends capped, inverted abasic or similar, further chemistry not fully specified) [PTEN 52, third generation antisense oligonucleotide (GeneBloc) against PTEN]
growth on matrigel (Hela cells): increased potential to form network structures on matrigel and grew better

COc1cccc(-c2cc(=O)c3ccccc3o2)c1N [PD98059]
increase in Akt phosphorylation induced by the PTEN GeneBlocs (MEK): had no effect
